Assay: SAD study: safety and tolerability (TEAEs)
Type: in vivo, human
Details: for TEAE: Abdominal pain / TEAE: Application site rash / TEAE: Chest discomfort / TEAE: Cough / TEAE: Fatigue / TEAE: Feeling hot / TEAE: Headache / TEAE: Nasal congestion / TEAE: Rhinitis / TEAE: Sinus tachycardia / ≥1 TEAE / ≥1 drug-related TEAE / ≥1 serious TEAE / ≥1 severe TEAE: n = 6
Method: The two studies were randomized, double-blind, placebo-controlled studies that enrolled participants into sequential treatment cohorts using a 3:1 active treatment-to-placebo randomization ratio.
A sentinel dosing strategy was employed in both studies. […] In all cohorts, escalation to the next dose occurred after a safety review of the previous cohort. In the MAD study, sentinel dosing was performed in part 3, wherein participants were evaluated for safety up to 24 h after administration of the first drug combination (or placebo) on day 3, prior to enrolling additional participants.
Safety assessments included monitoring of AEs, laboratory safety tests (hematology, serum chemistry, and urinalysis), 12-lead ECG (discrete recordings and 24-h Holter recording), and vital signs (blood pressure, pulse rate, and body temperature). In the SAD study, safety assessments were performed predose at screening, at day 1, postdose periodically on days 1, 2, and 7 (follow-up), and at early withdrawal, if relevant. Blood samples for pharmacokinetic profiling in the SAD study were collected on day 1 before the morning infusion and 0.5, 1, 1.5, 2, 3, 4, 6, 8, 12, and 24 h postinfusion start. In the MAD study, safety assessments were done predose at screening, at day 2, postdose periodically on days 1, 2, 4, 7, and 8, on days 13 to 15 (follow-up), and at early withdrawal, if relevant. In the MAD study, blood samples were collected on days 1 and 9 prior to the morning infusion and 0.5, 1, 1.5, 2, 3, 4, 6, 8, and 12 h (on day 9 only) postinfusion start. On all other days, a single predose sample was collected for pharmacokinetic evaluation prior to the morning infusion. Blood was collected into lithium-heparin tubes and stored at a nominal –80°C temperature until analysis.

NCCONC(=O)[C@@H]1CC[C@@H]2CN1C(=O)N2OS(=O)(=O)O [Nacubactam]
0 n: ≥1 serious TEAE (SAD, 50 mg) | ≥1 severe TEAE (SAD, 50 mg) | ≥1 serious TEAE (SAD, 150 mg) | ≥1 severe TEAE (SAD, 150 mg) | ≥1 serious TEAE (SAD, 500 mg) | ≥1 severe TEAE (SAD, 500 mg) | ≥1 serious TEAE (SAD, 1,000 mg) | ≥1 severe TEAE (SAD, 1,000 mg) | ≥1 serious TEAE (SAD, 2,000 mg) | ≥1 severe TEAE (SAD, 2,000 mg)
0 n/E: TEAE: Abdominal pain (SAD, 50 mg) | TEAE: Application site rash (SAD, 50 mg) | TEAE: Cough (SAD, 50 mg) | TEAE: Feeling hot (SAD, 50 mg) | TEAE: Headache (SAD, 50 mg) | TEAE: Rhinitis (SAD, 50 mg) | TEAE: Sinus tachycardia (SAD, 50 mg) | ≥1 drug-related TEAE (SAD, 50 mg) | TEAE: Abdominal pain (SAD, 150 mg) | TEAE: Application site rash (SAD, 150 mg) | TEAE: Chest discomfort (SAD, 150 mg) | TEAE: Fatigue (SAD, 150 mg) | TEAE: Headache (SAD, 150 mg) | TEAE: Nasal congestion (SAD, 150 mg) | TEAE: Rhinitis (SAD, 150 mg) | ≥1 drug-related TEAE (SAD, 150 mg) | TEAE: Abdominal pain (SAD, 500 mg) | TEAE: Application site rash (SAD, 500 mg) | TEAE: Chest discomfort (SAD, 500 mg) | TEAE: Cough (SAD, 500 mg) | TEAE: Fatigue (SAD, 500 mg) | TEAE: Feeling hot (SAD, 500 mg) | TEAE: Nasal congestion (SAD, 500 mg) | TEAE: Sinus tachycardia (SAD, 500 mg) | ≥1 drug-related TEAE (SAD, 500 mg) | TEAE: Application site rash (SAD, 1,000 mg) | TEAE: Chest discomfort (SAD, 1,000 mg) | TEAE: Cough (SAD, 1,000 mg) | TEAE: Feeling hot (SAD, 1,000 mg) | TEAE: Headache (SAD, 1,000 mg) | TEAE: Nasal congestion (SAD, 1,000 mg) | TEAE: Rhinitis (SAD, 1,000 mg) | TEAE: Sinus tachycardia (SAD, 1,000 mg) | ≥1 drug-related TEAE (SAD, 1,000 mg) | TEAE: Abdominal pain (SAD, 2,000 mg) | TEAE: Application site rash (SAD, 2,000 mg) | TEAE: Chest discomfort (SAD, 2,000 mg) | TEAE: Cough (SAD, 2,000 mg) | TEAE: Fatigue (SAD, 2,000 mg) | TEAE: Feeling hot (SAD, 2,000 mg) | TEAE: Nasal congestion (SAD, 2,000 mg) | TEAE: Rhinitis (SAD, 2,000 mg) | TEAE: Sinus tachycardia (SAD, 2,000 mg)
26.7%: participants reporting one or more AEs (SAD, all nacubactam doses, eight of the 30 participants)
11: total number of AEs (SAD, all nacubactam doses, 30 participants)
1/3: ≥1 TEAE (SAD, 150 mg)
1/1: TEAE: Chest discomfort (SAD, 50 mg) | TEAE: Fatigue (SAD, 50 mg) | TEAE: Nasal congestion (SAD, 50 mg) | TEAE: Cough (SAD, 150 mg) | TEAE: Feeling hot (SAD, 150 mg) | TEAE: Sinus tachycardia (SAD, 150 mg) | TEAE: Headache (SAD, 500 mg) | TEAE: Rhinitis (SAD, 500 mg) | TEAE: Abdominal pain (SAD, 1,000 mg) | TEAE: Fatigue (SAD, 1,000 mg) | TEAE: Headache (SAD, 2,000 mg) | ≥1 TEAE (SAD, 2,000 mg) | ≥1 drug-related TEAE (SAD, 2,000 mg)
2/3: ≥1 TEAE (SAD, 50 mg)
2/2: ≥1 TEAE (SAD, 500 mg) | ≥1 TEAE (SAD, 1,000 mg)

From PMC7179653 (Antimicrobial Agents and Chemotherapy, 2020)
